Columns and labels:
Type in all cases: in vivo
Polygonum convolvulus = assay: Pre-emergence herbicidal efficacy, POLCO; conditions: scored visually after about 3 weeks vs untreated controls
Excerpt: (§1) C.1 Pre-Emergence Herbicidal Action and Crop Plant Compatibility
(§2) Seeds of monocotyledonous and dicotyledonous weed plants and crop plants are placed in plastic or organic planting pots and covered with soil. The compounds of the invention, formulated in the form of wettable powders (WP) or as emulsion concentrates (EC), are then applied onto the surface of the covering soil as aqueous suspension or emulsion with addition of 0.5% additive at a water application rate of […] (converted). After the treatment, the pots are placed in a greenhouse and kept under good growth conditions for the trial plants. After about 3 weeks, the effect of the preparations is scored visually in comparison with untreated controls as percentages. For example, 100% activity=the plants have died, 0% activity=like control plants.
(§3) ABUTH: Abutilon theophrasti ALOMY: Alopecurus myosuroides AMARE: Amaranthus retroflexus AVEFA: Avena fatua CYPES: Cyperus esculentus ECHCG: Echinochloa crus-galli LOLMU: Lolium multiflorum MATIN: Matricaria inodora PHBPU: Ipomoea purpurea POLCO: Polygonum convolvulus SETVI: Setaria viridis STEME: Stellaria media VERPE: Veronica persica VTOTR: Viola tricolor

Setaria viridis = assay: Pre-emergence herbicidal efficacy, SETVI; conditions: Table B1, application rate 320 g/ha, scored visually after about 3 weeks vs untreated controls
Excerpt: as §1, §2, §3

Veronica persica = assay: Pre-emergence herbicidal efficacy, VERPE; conditions: scored visually after about 3 weeks vs untreated controls
Excerpt: as §1, §2, §3

Abutilon theophrasti = assay: Pre-emergence herbicidal efficacy, ABUTH; conditions: Table B1, application rate 320 g/ha, scored visually after about 3 weeks vs untreated controls
Excerpt: as §1, §2, §3

Stellaria media = assay: Pre-emergence herbicidal efficacy, STEME
Excerpt: as §1, §2, §3

Lolium rigidum = assay: Pre-emergence herbicidal efficacy, LOLRI; conditions: Table B1, application rate 320 g/ha, scored visually after about 3 weeks vs untreated controls
Excerpt: C.1 Pre-Emergence Herbicidal Action and Crop Plant Compatibility Seeds of monocotyledonous and dicotyledonous weed plants and crop plants are placed in plastic or organic planting pots and covered with soil. The compounds of the invention, formulated in the form of wettable powders (WP) or as emulsion concentrates (EC), are then applied onto the surface of the covering soil as aqueous suspension or emulsion with addition of 0.5% additive at a water application rate of […] (converted). After the treatment, the pots are placed in a greenhouse and kept under good growth conditions for the trial plants. After about 3 weeks, the effect of the preparations is scored visually in comparison with untreated controls as percentages. For example, 100% activity=the plants have died, 0% activity=like control plants. […] Here, for example, compound Nos. I-214 and I-196, when applied pre-emergence, have very good activity (80% to 100% herbicidal activity) against harmful plants such as Abutilon theophrasti, Amaranthus retroflexus, Echinochloa crus-galli, Lolium rigidum, Matricaria inodora, Polygonum convolvulus, Setaria viridis, Stellaria media, Veronica persica and Viola tricolor at an application rate of 0.32 kg of active substance or less per hectare. At the same time, some of the compounds according to the invention leave Gramineae crops such as barley, wheat, rye, millet/sorghum, corn, rice or sugar cane virtually undamaged when applied pre-emergence, even at high active compound dosages. In addition, some substances are also harmless to dicotyledonous crops such as soya, cotton, oilseed rape or sugar beet.

Echinochloa crus-galli = assay: Pre-emergence herbicidal efficacy, ECHCG; conditions: Table B1, application rate 320 g/ha, scored visually after about 3 weeks vs untreated controls
Excerpt: as §1, §2, §3

Amaranthus retroflexus = assay: Pre-emergence herbicidal efficacy, AMARE; conditions: scored visually after about 3 weeks vs untreated controls
Excerpt: as §1, §2, §3

Matricaria inodora = assay: Pre-emergence herbicidal efficacy, MATIN
Excerpt: as §1, §2, §3

Viola tricolor = assay: Pre-emergence herbicidal efficacy, VIOTR
Excerpt: as §1, §2, §3

[1] = Table B1, application rate 320 g/ha
[2] = Table B1, application rate 320 g/ha, scored visually after about 3 weeks vs untreated controls
[3] = application rate 320 g/ha, scored visually after about 3 weeks
[4] = Table B2, application rate 320 g/ha
[5] = Table B2, application rate 320 g/ha, scored visually after about 3 weeks vs untreated controls

| Compound | Herbicidal efficacy against POLCO (Polygonum convolvulus; [1]) [%] | Herbicidal efficacy against SETVI (Setaria viridis) [%] | Herbicidal efficacy against VERPE (Veronica persica; [1]) [%] | Herbicidal efficacy against ABUTH (Abutilon theophrasti) [%] | Herbicidal efficacy against STEME (Stellaria media; [2]) [%] | Herbicidal efficacy against LOLRI (Lolium rigidum) [%] | Herbicidal efficacy against ECHCG (Echinochloa crus-galli) [%] | Herbicidal efficacy against AMARE (Amaranthus retroflexus; [1]) [%] | Herbicidal efficacy against MATIN (Matricaria inodora; [2]) [%] | Herbicidal efficacy against VIOTR (Viola tricolor; [2]) [%] | Herbicidal efficacy against STEME (Stellaria media; [3]) [%] | Herbicidal efficacy against MATIN (Matricaria inodora; [3]) [%] | Herbicidal efficacy against VIOTR (Viola tricolor; [3]) [%] | Herbicidal efficacy against POLCO (Polygonum convolvulus; [4]) [%] | Herbicidal efficacy against VERPE (Veronica persica; [4]) [%] | Herbicidal efficacy against STEME (Stellaria media; [5]) [%] | Herbicidal efficacy against AMARE (Amaranthus retroflexus; [4]) [%] | Herbicidal efficacy against MATIN (Matricaria inodora; [5]) [%] | Herbicidal efficacy against VIOTR (Viola tricolor; [5]) [%] |
| --- | --- | --- | --- | --- | --- | --- | --- | --- | --- | --- | --- | --- | --- | --- | --- | --- | --- | --- | --- |
| Cc1ccc2c(c1)[C@H](Nc1nc3n(n1)CCCCS3(=O)=O)CC2 [Example I-365] | 100 | 100 | 100 | 100 | 100 | 100 | 90 | 100 | 100 | 100 | – | – | – | – | – | – | – | – | – |
| Cc1ccc2c(c1)C(Nc1nc3n(n1)CCCC[S+]3[O-])CCC2 (stereo not shown) [Example I-246] | 100 | 100 | 100 | 80 | 100 | 100 | 100 | 100 | 100 | 100 | – | – | – | – | – | – | – | – | – |
| Cc1ccc2c(c1)[C@H](Nc1nc3n(n1)CCN(S(=O)(=O)C(C)C)C3)[C@@H](C)C2 [Example I-191] | 100 | 100 | 100 | 100 | 100 | 100 | 100 | 100 | 100 | 100 | – | – | – | – | – | – | – | – | – |
| Cc1ccc2c(c1)C(Nc1nc3n(n1)CCN(C(=O)C1CC1)C3)C(C)C2 (stereo not shown) [Example I-167] | 100 | 100 | 100 | 100 | 100 | 100 | 100 | 100 | 100 | 100 | – | – | – | – | – | – | – | – | – |
| Cc1ccc2c(c1)[C@H](Nc1nc3n(n1)CCCC[S+]3[O-])CC2 (stereo partly shown) [Example I-370] | 100 | 100 | 100 | 100 | 100 | 100 | 100 | 100 | 100 | 100 | – | – | – | – | – | – | – | – | – |
| CC(=O)N1CCCn2nc(NC3CCCc4ccc(C)cc43)nc21 (stereo not shown) [Example I-321] | 90 | – | 100 | 80 | 100 | 100 | – | 100 | 100 | 100 | 100 | 100 | 100 | – | – | – | – | – | – |
| Cc1ccc2c(c1)C(Nc1nc3n(n1)CCC[S+]3[O-])C(C)C2 (stereo not shown) [Example I-360] | 100 | 100 | 100 | 100 | 100 | – | 90 | 100 | 100 | 100 | – | – | – | – | – | – | – | – | – |
| Cc1ccc2c(c1)C(Nc1nc3n(n1)CCCN3S(C)(=O)=O)CCC2 (stereo not shown) [Example I-329] | – | – | – | – | – | – | – | – | – | – | – | – | – | 100 | 100 | 100 | 100 | 100 | 100 |
| Cc1ccc2c(c1)[C@H](Nc1nc3n(n1)CCN(S(=O)(=O)C1CCCC1)C3)[C@@H](C)C2 [Example I-193] | – | – | – | – | – | – | – | – | – | – | – | – | – | 100 | 100 | 100 | 100 | 90 | 100 |
| Cc1ccc2c(c1)[C@H](Nc1nc3n(n1)CCN(S(=O)(=O)c1ccccc1Cl)C3)CCC2 [Example I-203] | – | – | – | – | – | – | – | – | – | – | – | – | – | 100 | 100 | 100 | 100 | 90 | 100 |
| Cc1ccc2c(c1)[C@H](Nc1nc3n(n1)CCN(C(=O)C1CCCCC1)C3)CCC2 [Example I-187] | – | – | – | – | – | – | – | – | – | – | – | – | – | 100 | 100 | 100 | 100 | 90 | 100 |
| CC1CCc2ccccc2C1Nc1nc2n(n1)CCCCS2 (stereo not shown) [Example I-356] | 100 | 100 | 100 | – | 100 | 100 | 100 | 100 | 100 | 100 | – | – | – | – | – | – | – | – | – |
| [O-][S+]1CCCCn2nc(NC3CCc4ccccc43)nc21 (stereo not shown) [Example I-250] | – | – | – | – | – | – | – | – | – | – | 100 | 100 | 100 | 100 | 90 | 100 | 100 | 100 | 100 |
| O=S1(=O)CCCCn2nc(N[C@@H]3CCc4ccccc43)nc21 [Example I-364, N-[(1R)-indan-1-yl]-4,4-dioxo-5,6,7,8-tetrahydro-[1,2,4]triazolo[5,1-b][1,3]thiazepin-2-amine] | – | – | – | – | – | – | – | – | – | – | – | – | – | 100 | 100 | 100 | 100 | 100 | 100 |
| Cc1ccc2c(c1)[C@H](Nc1nc3n(n1)CCCCS3(=O)=O)CCO2 [Example I-381] | 100 | 100 | 100 | 100 | 100 | 100 | – | 100 | 100 | 100 | – | – | – | – | – | – | – | – | – |
| Cc1ccc2c(c1)[C@H](Nc1nc3n(n1)CCCS3)CC2 [Example I-347] | 100 | 100 | 100 | 100 | 100 | – | 100 | 100 | 100 | 100 | – | – | – | – | – | – | – | – | – |
| CN1C(=O)CCn2nc(NC3CCCc4ccccc43)nc21 (stereo not shown) [Example I-278] | – | – | – | – | – | – | – | – | – | – | 80 | 80 | 90 | 100 | 100 | 100 | 100 | 100 | 100 |
| Cc1ccc2c(c1)C(Nc1nc3n(n1)CCCS3)CCC2 (racemic) [Example I-207] | – | – | – | – | – | – | – | – | – | – | – | – | – | 100 | 100 | 100 | 100 | 100 | 100 |

Source: patent US20200331904A1, “3-AMINO-[1,2,4]-TRIAZOLE DERIVATIVES AND THEIR USE FOR CONTROLLING UNDESIRED PLANT GROWTH” (Bayer CropScience Aktiengesellschaft, priority 2017, published 2020)
